Assays:
Type in all cases: in vitro ADME
[1] = In vitro stability in liver microsomes, human; details: 0.5 mg/mL
Method: Purpose of the assay: Metabolic stabilities of the assay compounds in liver microsomes of CD-1 mice, SD rats, beagle dogs, cynomolgus monkeys, and human were assayed, respectively.
Procedure of the assay: Two 96-well incubation plates were prepared and named T60 incubation plate and NCF60 incubation plate, respectively. 445 μL of microsomal working solutions (liver microsomal protein concentration of 0.56 mg/mL) were added to the T60 incubation plate and the NCF60 incubation plate, respectively, and then the above incubation plates were pre-incubated in a 37° C. water bath for about 10 minutes.
After the pre-incubation, 5 μL of working solutions of the assay sample or the control compound were added to the T60 incubation plate and the NCF60 incubation plate, respectively, and the mixture was mixed well. 50 μL of potassium phosphate buffer was added to each well of the NCF60 incubation plate to initiate the reaction. 180 μL of stop solution (200 ng/mL tolbutamide and 200 ng/mL labetalol in acetonitrile) and 6 uL of NADPH regeneration system working solution were added to the T0 stop plate, and 54 μL of sample was transferred from T60 incubation plate to T0 stop plate (generation of TO sample). The reaction was initiated by adding 44 μL of NADPH regeneration system working solution to each well of the T60 incubation plate. Only 54 μL of microsome working solution, 6 uL of NADPH regeneration system working solution and 180 μL of stop solution were added to the Blank plate. Therefore, in samples of the assay compound or the control compound, the final reaction concentration of compound, testosterone, diclofenac and propafenone was 1 μM, the concentration of liver microsomes was 0.5 mg/mL, and the final reaction concentrations of DMSO and acetonitrile in the reaction system were 0.01% (v/v) and 0.99% (v/v), respectively.
After an appropriate time (e.g., 5, 15, 30, 45 and 60 minutes) of incubation, 180 μL of stop solutions (200 ng/mL tolbutamide and 200 ng/mL labetalol in acetonitrile) were added to the sample wells of each stop plate, respectively. 60 μL of sample was removed from the T60 incubation plate to stop the reaction. All sample plates were shaken well and then centrifuged at 3220×g for 20 minutes. Then 80 μL of supernatant was taken out from each well, and diluted in 240 μL of pure water for liquid chromatography-tandem mass spectrometry analysis. All samples were injected and analyzed by liquid chromatography-tandem mass spectrometry.

[2] = Metabolic stability in hepatocytes, SD rats
Method: (§1) Purpose of the assay: Metabolic stabilities of assay compounds in hepatocytes of CD-1 mice, SD rats, beagle dogs, cynomolgus monkeys, and human were assayed, respectively.
(§2) Procedure of the assay: Several 96-well sample precipitation plates were prepared and named T0, T15, T30, T60, T90, T120, TO-MC, T120-MC and blank substrates, respectively. The recovery medium and incubation medium were taken out in advance and placed in a 37° C. water bath for pre-heating. Cryopreserved hepatocytes were removed from the liquid nitrogen tank and immediately immersed in a 37° C. water bath (approximately 90 seconds). After the cryopreserved hepatocytes had thawed and loosened, they were poured into a centrifuge tube containing 40 mL of recovery medium, and the tube was gently inverted to allow the cells to be resuspended in the recovery medium. The cells were centrifuged at 100×g at room temperature for 5 min, and the supernatant was removed. The hepatocytes were resuspended in an appropriate volume of incubation medium, and the cell viability was calculated by Trypan Blue staining method. 198 μL of hepatocyte suspension (0.51×10^6 cells/mL) was added to the preheated incubation plate. For the culture medium control group, 198 μL of hepatocyte-free incubation medium was added to T0-MC and T120-MC incubation plate. All incubation plates were pre-incubated in a 37° C. incubator for 10 minutes. Then 2 μL of working solutions of the assay sample and the control compound were added, respectively, and the mixture was mixed well. The incubation plate was immediately put into the shaker in the incubator, and the reaction was initiated while starting the timer. For each time point of each compound, 2 duplicate samples were prepared. The incubation conditions were 37° C., saturated humidity, and 5% CO2. In the assay system, the final concentration of the assay sample was 1 μM, the final concentration of the control sample was 3 μM, the final concentration of hepatocytes was 0.5×10^6 cells/mL, and the final concentration of the total organic solvent was 0.96%, of which the final concentration of DMSO was 0.1%. At the end of the incubation for the corresponding time point, the incubation plate was taken out, and 25 μL of a mixture of compound and control compound with cells was added to the sample plate containing 125 μL of stop solution (200 ng/mL tolbutamide and labetalol in acetonitrile). For the Blank sample plate, 25 μL of hepatocyte-free incubation medium was added directly. After sealing, all sample plates were shaken on a shaker at 600 rpm for 10 minutes, and then centrifuged at 3220×g for 20 minutes. Supernatants of the assay sample and the control sample were diluted with ultrapure water at a ratio of 1:3. All samples were mixed well and analyzed by LC/MS/MS.

[3] = Metabolic stability in hepatocytes, cynomolgus monkeys
Method: as §1, §2

[4] = Stability assay in plasma, human; details: 2 μM, 37° C.
Method: Purpose of the assay: Stabilities of the assay compounds in plasma of CD-1 mice and human were assayed, respectively.
Procedure of the assay: Cryopreserved plasma was thawed for 10-20 min. After the plasma was completely thawed, it was placed in a centrifuge and centrifuged at 3220×g for 5 min to remove any suspended matter and sediment in the plasma. 96-well incubation plates were prepared and named TO, T10, T30, T60, T120, respectively. 98 μL of blank plasmas of mouse, rat, canine, monkey and human were added to the corresponding incubation plates, then 2 μL of working solutions of the compound or the control compound were added to the corresponding plates in duplicate. All samples were incubated in a 37° C. water bath. The final incubation concentrations of the compound and the control compounds bisacodyl, enalapril maleate, procaine and probanthine were 2 μM, and the final organic phase content was 2.0%. At the end of incubation for each time point, the corresponding incubation plate was removed and 400 μL of a solution of 200 ng/mL of tolbutamide and labetalol in acetonitrile was added to each corresponding sample well to precipitate the protein. All sample plates were sealed and shaken well, and then centrifuged at 3220×g for 20 minutes. 50 μL of supernatant was taken out and diluted in 100 μL of ultrapure water. All samples were mixed well and then analyzed by LC/MS/MS.

| CLint(liver) ([1]; 1 μM) [mL/min/kg] | T1/2 ([1]; 1 μM) [min] | CLint(liver) ([2]; 1 μM) [mL/min/kg] | T1/2 ([2]; 1 μM) [min] | CLint(liver) ([3]; 1 μM) [mL/min/kg] | T1/2 ([3]; 1 μM) [min] | SMILES | CLint(mic) ([1]; 1 μM) [µL/min/mg] | CLint(hep) ([2]; 1 μM) [μL/min/10^6] | CLint(hep) ([3]; 1 μM) [μL/min/10^6] | Detection of assay compound content within 120 min [4] [%] | CLint scaled at 1 μM [1] [mL/min/kg] | half-life at 1 μM [1] [min] | half-life at 1 μM ([2]; rat, cryopreserved hepatocytes) [min] | CLint scaled at 1 μM ([2]; rat, cryopreserved hepatocytes, read-out: CLint(liver)) [mL/min/kg] | half-life at 1 μM ([3]; cynomolgus monkey, cryopreserved hepatocytes) [min] | CLint scaled at 1 μM ([3]; cynomolgus monkey, cryopreserved hepatocytes, read-out: CLint(liver)) [mL/min/kg] |
| --- | --- | --- | --- | --- | --- | --- | --- | --- | --- | --- | --- | --- | --- | --- | --- | --- |
| 20.7 | 60.3 | 35.0 | 185.2 | 36.7 | 136.1 | C=C(F)C(=O)N1CCN(c2nc(OCC3CCCN3C)nc3c2COC(c2c(F)c(N)cc(C)c2C(F)(F)F)C3)CC1CC#N.Cl (single isomer, unassigned) [Compound 8B hydrochloride] | 23 | 7.5 | 10.2 | 114 |  |  |  |  |  |  |
|  |  |  |  |  |  | C=C(F)C(=O)N1CCN(c2nc(OC[C@@]34CCCN3C[C@H](F)C4)nc3c2COC(c2c(F)c(N)cc(C)c2C(F)(F)F)C3)C[C@@H]1CC#N (some centres unmarked) [Compound 17] | 67.9 | 67.4 | 51.3 | 93 | 61.1 | 20.4 | 20.6 | 315 | 27 | 185 |

Reference: patent US12012404B2, “Pyrimidoheterocyclic compounds and application thereof” (D3 BIO (WUXI) CO., LTD., priority 2020, dated 2024)
